Key:
[1] = Rate of encapsulation of polynucleotide/mRNA (Quant-iT RiboGreen, with and without Triton X-100); format: physicochemical
Experimental: The rate of encapsulation of the double-stranded polynucleotide was measured using Quant-iT RiboGreen RNA Assay kit (Invitrogen Corp.) according to the attached document.
(§1) Specifically, the double-stranded polynucleotide in the nucleic acid lipid particle dispersion was quantified in the presence and absence of a 0.015% Triton X-100 detergent, and the rate of encapsulation was calculated according to the following expression: {[Amount of the double-stranded polynucleotide in the presence of the detergent]−[Amount of the double-stranded polynucleotide in the absence of the detergent]}/[Amount of the double-stranded polynucleotide in the presence of the detergent]}×100(%) (3) Ratio of Double-Stranded Polynucleotide to Lipid
The rate of encapsulation of the mRNA was measured using Quant-iT RiboGreen RNA Assay kit (Invitrogen Corp.) according to the attached document.
as §1, with “mRNA” for “double-stranded polynucleotide”, “mRNA” for “Double-Stranded Polynucleotide”

[2] = tested on: human β-catenin gene; assay: Test Example 1: β-catenin gene expression inhibition in SW480 cells, 3 days, real-time PCR; format: cell-based; conditions: for inhibitory activity against β-catenin gene expression (in words): compared with particle containing lipid of Reference Example 2; for IC50: nucleic acid lipid particle of Example 31 containing the named lipid, double-stranded polynucleotide concentration, read-out: β-catenin gene expression inhibitory activity IC50
Experimental: (§2) As described below, the strength of human β-catenin gene expression inhibitory activity was compared among nucleic acid lipid particles each prepared using a novel lipid.
(§3) The concentration of a human colorectal cancer SW480 cell line (derived from human colorectal adenocarcinoma) was adjusted to 50,000 cells/mL in an RPMI1640 medium (manufactured by Invitrogen Corp.) containing 10% fetal bovine serum (culture medium). Then, the resulting culture solution was inoculated at 100 μL/well to a 96-well flat-bottomed plate (manufactured by Corning Inc./Falcon) and cultured at 37° C. for 1 day under 5.0% CO2. The nucleic acid lipid particle dispersion prepared in Example 31 was diluted with a culture medium to prepare dilution series having final double-stranded polynucleotide concentrations of 30, 3.0, 0.3, and 0.03 nM in the medium. Then, each dilution was added to the cells after removal of the culture supernatant, and the culture was further continued for 3 days. This operation was performed at N=3 for each concentration.
(§4) A lysate and cDNA for real-time PCR measurement were prepared from the transfected cells using TaqMan® Fast-Cells-to-Ct kit (Life Technologies, Inc./Ambion) according to the instruction manual. In the lysate preparation, Lysis Solution supplemented with DNase I was used. The probes for real-time PCR used were TaqMan® Gene Expression Assays (CTNNB1, FAM probe) (Hs00355045_m1, manufactured by Applied Biosystems, Inc.) for the human β-catenin gene and a human GAPDH gene probe as an internal standard (VIC probe, Hs99999905_m1, manufactured by Applied Biosystems, Inc.). 5 μL of TaqMan® Fast Advanced Master Mix, 2 μL of RNase-Free Water, 0.5 μL of each gene probe, and 2 μL of the prepared cDNA solution were added per well of a 384-well PCR plate (manufactured by Applied Biosystems, Inc.) to bring the total amount to 10 μL, which was then loaded in ViiA™ 7 Real-time PCR system (manufactured by Applied Biosystems, Inc.) and subjected to PCR under conditions given below. The real-time PCR was carried out at N=4 for the cDNA prepared from the lysate.
(§5) PCR initial activation: 95° C. for 20 seconds
(§6) PCR: 95° C. for 1 second • 62° C. for 20 seconds
(§7) This PCR cycle was repetitively performed 40 times.
(§8) The quantitative analysis was conducted by the ΔΔCt method.

[3] = Ratio of polynucleotide/mRNA to lipid (wt/wt); format: physicochemical
Experimental: The nucleic acid lipid particle dispersion was mixed with acetonitrile and chloroform at a ratio of 1:1:1 and centrifuged at 15,000 rpm for 2 minutes. Then, the aqueous layer obtained as an upper layer was recovered, followed by the extraction of the double-stranded polynucleotide. The amount of the double-stranded polynucleotide in the sample was measured by ion-exchange chromatography (system: Agilent 1100 series, column: TSKgel DEAE-2SW (2.6×150 mm) (Tosoh Corp), buffer A: 20% acetonitrile, buffer B: 20% acetonitrile and 1.6 M ammonium formate, gradient (B %): 30-55% (0-20 min), flow rate: 1 mL/min, temperature: 40° C., detection: 260 nm).
The amount of the phospholipid in the nucleic acid lipid particle dispersion was measured using Phospholipid C-Test Wako (Wako Pure Chemical Industries Ltd.) according to the attached document. Specifically, the phospholipid in the sample was quantified in the presence of a 1% Triton X-100 detergent.
(§9) The amounts of cholesterol and LP in the nucleic acid lipid particle dispersion were measured by reverse-phase chromatography (system: Agilent 1100 series, column: Chromolith Performance RP-18 endcapped 100-3 monolithic HPLC-column (Merck), buffer A: 0.01% trifluoroacetic acid, buffer B: 0.01% trifluoroacetic acid and methanol, gradient (B %): 87-92% (0-10 min), flow rate: 2 mL/min, temperature: 50° C., detection: 205 nm).
(§10) The total amount of lipids was calculated from the amount of the phospholipid and the compositional ratio of lipid components constituting the liposome, and the ratio of the polynucleotide to the lipid was calculated from the aforementioned amount of the polynucleotide and the total amount of lipids according to the following expression: [Double-stranded polynucleotide concentration]/[Total lipid concentration] (wt/wt)
as §10, with “phospholipid, the amount of cholesterol, and the amount of LP,” for “phospholipid”
The amount of the double-stranded polynucleotide in a sample from the nucleic acid lipid particle dispersion was measured in the presence of a 5% Triton X-100 detergent by ion-exchange chromatography (system: Agilent 1100 series, column: DNAPac PA200 (4×250 mm) (Thermo Fisher Scientific K.K.), buffer A: 10 mM Tris, 25 mM sodium perchlorate, and 20% ethanol, pH 7.0, buffer B: 10 mM Tris, 250 mM sodium perchlorate, and 20% ethanol, pH 7.0, gradient (B %): 20-70% (0-15 min), flow rate: 0.5 mL/min, temperature: 40° C., detection: 260 nm).
as §9, with “82-92%” for “87-92%”
The total amount of lipids was calculated from the amount of the phospholipid, the amount of cholesterol, and the amount of LP, and the compositional ratio of lipid components constituting the liposome, and the ratio of the mRNA to the lipid was calculated from the “amount of the mRNA in the presence of the detergent” of the preceding paragraph (2) according to the following expression: [mRNA concentration in the presence of the detergent]/[Total lipid concentration] (wt/wt)

[4] = tested on: human β-catenin gene; assay: Test Example 2: β-catenin gene expression inhibition in HepG2 cells, 3 days, real-time PCR; format: cell-based; conditions: for inhibitory activity against β-catenin gene expression (in words): compared with particle containing lipid of Reference Example 2; for IC50: nucleic acid lipid particle of Example 31 containing the named lipid, read-out: β-catenin gene expression inhibitory activity IC50
Experimental: as §2
The concentration of a human liver cancer HepG2 cell line (derived from human liver cancer) was adjusted to 50000 cells/mL in a DMEM medium (manufactured by Invitrogen Corp.) containing 10% fetal bovine serum (culture medium). Then, the resulting culture solution was inoculated at 100 μL/well to a 96-well flat-bottomed plate (manufactured by Corning Inc./Falcon) and cultured at 37° C. for 1 day under 5.0% CO2. The nucleic acid lipid particle-containing dispersion prepared in Example 31 was diluted with a culture medium to prepare dilution series having final double-stranded polynucleotide concentrations of 30, 3, 0.3, and 0.03 nM in the medium. Then, each dilution was added to the cells after removal of the culture supernatant, and the culture was further continued for 3 days. This operation was performed at N=3 for each concentration.
as §4, §5, §6, §7, §8

[5] = Average particle size of nucleic acid lipid particle (NICOMP 380ZLS); format: physicochemical
Experimental: The particle size of the liposome was measured using Zeta Potential/Particle Sizer NICOMP™ 380ZLS (Particle Sizing Systems, LLC). In the tables, the average particle size is indicated by a volume-average particle size, and the numeric value following ±represents a deviation.

[6] = tested on: human β-catenin gene; assay: Test Example 8: β-catenin gene expression inhibition in SW480 cells, procedures of Test Example 3, 50-0.05 nM; format: cell-based; conditions: for inhibitory activity against β-catenin gene expression (in words): compared with particle containing lipid of Reference Example 2; for IC50: procedures of Test Example 3, 50, 5, 0.5, 0.05 nM, particles of Example 55, read-out: β-catenin gene expression inhibitory activity IC50
Experimental: as §3, with “to 50000” for “to 50,000”, “in a” for “in an”, “lipid particle-containing” for “lipid particle”, “30, 3,” for “30, 3.0,”, “for 4 hours.” for “for 3 days.”
as §4, §8
By the same procedures as in Test Example 3, SW480 cells were treated with 50 nM, 5 nM, 0.5 nM, and 0.05 nM each of nucleic acid lipid particles each prepared using a novel lipid, and the strength of human β-catenin gene expression inhibitory activity was compared among these particles.

[7] = particles of Example 31: DSPC:Chol:LP:PEG-C-DMA=20:48:30:2, CT-157/CT-169 double-stranded polynucleotide
[8] = particles of Example 31, total lipids calculated from phospholipid amount and compositional ratio (Table 3)
[9] = particles of Example 31, volume-average particle size ± deviation
[10] = Example 55: particles prepared as in Example 31 (β-catenin double-stranded polynucleotide)
[11] = Example 55: particles prepared as in Example 31
[12] = Example 55: particles prepared as in Example 31, ± deviation

Row | Structure (SMILES) | Rate of polynucleotide encapsulation [1, 7] [%] | inhibitory activity against β-catenin gene expression (in words) [2] | IC50 [2] [nM] | Ratio of polynucleotide to lipid siRNA/lipid [3, 8] [wt/wt] | inhibitory activity against β-catenin gene expression (in words) [4] | IC50 [4] [nM] | Average particle size [5, 9] [nm] | Rate of polynucleotide encapsulation [1, 10] [%] | Ratio of polynucleotide to lipid siRNA/lipid [3, 11] [wt/wt] | inhibitory activity against β-catenin gene expression (in words) [6] | IC50 [6] [nM] | Average particle size [5, 12] [nm]
1 | CCCCC/C=C\C/C=C\CCCCCCCCC(CCCCCCCC/C=C\C/C=C\CCCCC)OC(=O)OCCCN(C)C [Example 1, 3-(Dimethylamino)propyl(6Z,9Z,28Z,31Z)-heptatriaconta-6,9,28,31-tetraen-19-yl Carbonate] | 94.3 | strong inhibitory activity | 3.5 | 0.109 | strong inhibitory activity | 0.38 | 183 ± 41 | – | – | – | – | –
2 | CCCCC/C=C\C/C=C\CCCCCCCC(CCCCCCC/C=C\C/C=C\CCCCC)OC(=O)OCCCN(C)C [Example 2, 3-(Dimethylamino)propyl(6Z,9Z,26Z,29Z)-pentatriaconta-6,9,26,29-tetraen-18-yl Carbonate] | 96.3 | strong inhibitory activity | 6.8 | 0.099 | strong inhibitory activity | 0.47 | 215 ± 70 | – | – | – | – | –
3 | CCCCC/C=C\C/C=C\CCCCCCCC(CCCCCCC/C=C\C/C=C\CCCCC)OC(=O)OCCCCN(C)C [Example 3, 4-(Dimethylamino)butyl(6Z,9Z,26Z,29Z)-pentatriaconta-6,9,26,29-tetraen-18-yl Carbonate] | 98.6 | strong inhibitory activity | 0.44 | 0.099 | strong inhibitory activity | 0.35 | 187 ± 31 | – | – | – | – | –
4 | CCCCCC[C@H](C/C=C\CCCCCCCC(CCCCCCC/C=C\C[C@@H](CCCCCC)OC(=O)CC)OC(=O)OCCCN(C)C)OC(=O)CC [Example 41, (7R,9Z,26Z,29R)-18-({[3-(Dimethylamino)propoxy]carbonyl}oxy)pentatriaconta-9,26-diene-7,29-diyl Dipropionate] | – | – | – | – | – | – | – | 97 | 0.101 | strong inhibitory activity | 2.6 | 158 ± 40
5 | CCCCCC[C@H](C/C=C\CCCCCCCCC(CCCCCCCC/C=C\C[C@@H](CCCCCC)OC(C)=O)OC(=O)OCCCN(C)C)OC(C)=O [Example 42, (7R,9Z,28Z,31R)-19-({[3-(Dimethylamino)propoxy]carbonyl}oxy)heptatriaconta-9,28-diene-7,31-diyl Diacetate] | – | – | – | – | – | – | – | 97 | 0.077 | strong inhibitory activity | 6 | 188 ± 45
6 | CCCCCCCCCCCCC(CCCCCCC/C=C\C[C@@H](CCCCCC)OC(C)=O)OC(=O)OCCCN(C)C (stereo partly drawn) [Example 43, (7R,9Z)-18-({[3-(Dimethylamino)propoxy]carbonyl}oxy)triacont-9-en-7-yl Acetate] | – | – | – | – | – | – | – | 97 | 0.075 | strong inhibitory activity | 24 | 174 ± 31

From patent US10731159B2, “Cationic lipid” (DAIICHI SANKYO COMPANY, LIMITED, priority 2013, dated 2020)
